Usually IC50 stands for the concentration that gives 50% inhibition. Read a high IC50 as a need for much substance.

Assay [1] has as its target T1, Lanosta-8,24-dien-3β-ol 14α-methyl demethylase (Rattus norvegicus, UniProt Q64654).
T1 construct: rat hepatic microsomal preparations; from tissue; host or cells: rat liver microsomes
T1 sequence (Q64654 1-503): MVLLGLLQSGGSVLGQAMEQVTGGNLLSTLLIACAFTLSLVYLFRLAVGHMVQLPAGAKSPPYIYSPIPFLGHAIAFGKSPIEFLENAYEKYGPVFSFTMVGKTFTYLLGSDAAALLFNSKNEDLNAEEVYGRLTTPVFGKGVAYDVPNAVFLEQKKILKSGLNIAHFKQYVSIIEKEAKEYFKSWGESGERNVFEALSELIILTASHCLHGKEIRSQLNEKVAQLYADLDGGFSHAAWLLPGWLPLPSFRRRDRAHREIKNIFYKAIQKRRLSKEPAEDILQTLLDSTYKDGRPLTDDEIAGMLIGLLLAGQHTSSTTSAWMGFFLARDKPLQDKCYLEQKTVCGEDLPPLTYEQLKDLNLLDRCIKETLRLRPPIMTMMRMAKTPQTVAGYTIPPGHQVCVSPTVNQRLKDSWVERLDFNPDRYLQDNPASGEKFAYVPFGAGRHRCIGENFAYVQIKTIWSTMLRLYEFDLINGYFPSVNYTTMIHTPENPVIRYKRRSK
The assay is described as follows: Lanosta-8,24-dien-3β-ol 14α-Methyl Demethylase Inhibition Assay. The class given is biochemical. As to the method:
B. Lanosta-8,24-dien-3β-ol 14α-Methyl Demethylase Inhibition Assay
Lanosta-8,24-dien-3β-ol 14α-methyl demethylase activity was determined in rat hepatic microsomal preparations as described in Trzaskos et al., J. Biol. Chem., 261, 16937-16942 (1986). Specifically, test compounds were added to assay mixtures as detergent suspensions with substrate employing 5 mg Triton WR-1339, 100 μM lanost-8-en-3β-ol substrate, and test compounds ranging from 0 to 100 μM. The inhibitor/substrate/detergent suspension was incubated with 2 mg microsomal protein for 5 min at 37° followed by a 10 min incubation initiated by the addition of cofactors required for the reaction. […] Inhibition values are expressed as the amount of compound required to inhibit lanosta-8,24-dien-3β-ol 14α-methyldemethylase activity by 50% relative to that of the controls.

For assay [2], the system named is de novo cholesterol synthesis. The assay is described as follows: Decreasing de novo cholesterol synthesis (radiolabeled acetate incorporation into cholesterol in CHO cells). The class given is cell-based, Chinese Hamster (CHO cells). As to conditions: Cricetulus griseus, 19 h, % of control culture (Control = 100). As to the method: The ability of the compounds of Formula I to decrease de novo cholesterol synthesis was tested by measuring the incorporation of radiolabeled acetate into cholesterol synthesized in CHO cells. To conduct this experiment, CHO cells were plated at 0.3×10^6 cells per 15×60 mm tissue culture dish in 5 mL of McCoy's modified medium (Gibco Laboratories) containing 1% Cab-O-Sil delipidated FBS and incubated for 48 hours at 37° in a 5% CO2, 95% air environment. Test compounds in a 2.5% suspension of BSA (fatty acid free) in ethanol were then added to the cultures such that the final ethanol and BSA concentrations were 0.5% and 2.5%, respectively. Control cultures received ethanol and BSA alone. […]
The cells were harvested by washing the cells twice with 5 mL of cold PBS and scraping the cells into 1 mL PBS. […] The petroleum ether fractions were dried under nitrogen, resuspended in ethanol, counted and analyzed by reverse phase HPLC at 45° using an Ultrashpere Octyl column (from Altex Scientific Inc., Berkeley, Calif.) with a mobile phase of acetonitrile:methanol:water (44:44:12). The amount of cholesterol synthesis is measured by the amount of radiolabeled acetate incorporated into the cholesterol peak. The percent of cholesterol synthesis in the treated culture is calculated based upon the control culture.

The subject of assay [3] is 3-Hydroxy-3-Methylglutaryl Coenzyme A Reductase (HMGR). The assay is described as follows: HMGR Suppression Assay (HMGR activity in digitonin-permeabilized CHO cells). The class given is cell-based, Chinese Hamster (CHO cells). Conditions: tested under the same conditions as Table I. How it is done:
The ability of the compounds of Formula I to suppress the activity of HMGR, the rate limiting enzyme of cholesterol biosynthesis, was tested as follows. Chinese Hamster Ovary (CHO) cells were divided twice weekly and were maintained in McCoy's 5A medium supplemented with 1% Cab-O-Sil delipidated Fetal Bovine Serum (FBS) (obtained from Gibco Laboratories, Chagrin Falls, Ohio). […] Control cells were treated in an identical fashion to those which received test compound, except they were incubated with the BSA and ethanol suspension only.
Specifically, the medium in each well was aspirated and the cells rinsed with a 50 mM solution of phosphate buffered saline (PBS). One mL of 30 μg/mL of digitonin in CSK buffer (prepared using 10 mM Pipes [piperazine-N,N'-bis(2-ethansulfonic)acid'], 100 mM KCl, 2.5 mM MgCl2, 300 mM sucrose, 1 mM EGTA, pH 6.8) was added to each well and incubated for 10 min at 22° to permeabilize the cells. […] HMGR activity was measured directly by adding 75 μL of PIB buffer (50 mM potassium phosphate, 1 mM Na2 EDTA, 10 mM dithiothreitol, pH 7.4) to each well and incubating the cells for 30 minutes at 37° as described above. […] The assay mixture was incubated for 30 min at 37° and terminated by the addition of 70 μL of [^3 H]-mevalonic acid (35,000 DPM/assay), 0.15 mg/mL in 3 N HCl. The reaction was left to lactonize for an additional 30 min at 37° or overnight at room temperature.
Reaction products were separated by thin layer chromatography on silica gel G (obtained from Analtech, Newark, Del.) developed in an unsaturated environment with acetone:benzene (3:2, v:v). The band corresponding to mevalonolactone was identified by exposure to iodine vapor and was scraped into counting vials. […] Corrections for recovery and blank values were made for each sample. […] Cellular protein was solubilized from culture dishes by the addition of 20 μL of 16 N KOH and assayed directly for protein amount. Suppression values are expressed as the amount of compound required to suppress HMGR activity by 50% relative to that of the controls.

For the compound `C=CC(O)[C@@]12CC[C@H]([C@H](C)CCCC(C)C)[C@@]1(C)CCC1=C2CC[C@H]2C(C)(C)[C@@H](O)CC[C@]12C` (single isomer, unassigned) [Compound 11a, 4,4-dimethyl-14α-(1'-hydroxy-2'-propenyl)-5α-cholest-8-en-3β-ol], in assay [1] (rat hepatic microsomes, 100 μM lanost-8-en-3β-ol substrate, test compounds 0 to 100 μM), the IC50 came to 800 nM. This compound showed an activity at 1 µM in assay [2] of 1%.
In the case of `CC(C)CCC[C@@H](C)[C@H]1CC[C@H]2[C@@H]3CC=C4C[C@@H](O)CC[C@]4(C)[C@H]3CC[C@]12C` [cholesterol], the “effect on measured HMGR activity” value in assay [3] was “without effect”. For the same compound, the “effect on lanosta-8,24-dien-3β-ol 14α-methyl demethylase activity” value in assay [1] (tested under the same conditions as Table I) is “without effect”.
Turning to `CC(C)CCC[C@@H](C)[C@H]1CC[C@@]2(C)C3=C(CC[C@]12C)[C@@]1(C)CC[C@H](O)C(C)(C)[C@@H]1CC3` [lanost-8-en3β-ol, lanost-8-en-3β-ol], the “effect on measured HMGR activity” value in assay [3] is given as “without effect”. The “substrate for the demethylase enzyme” value in assay [1] was “clearly served as substrates”.
Turning to `CC(C)=CCC[C@@H](C)[C@H]1CC[C@@]2(C)C3=C(CC[C@]12C)[C@@]1(C)CC[C@H](O)C(C)(C)[C@@H]1CC3` [lanosta-8,24-dien-3β-ol], the “effect on measured HMGR activity” value in assay [3] was “without effect”. For the same compound, the “substrate for the demethylase enzyme” value in assay [1] is reported as “clearly served as substrates”.

(Values after patent US5041432A, “Steroid derivatives useful as hypocholesterolemics” (E. I. Du Pont de Nemours and Company, priority 1990, dated 1991).)
